Source: PMC5587642, “A Novel Benzocoumarin-Stilbene Hybrid as a DNA ligase I inhibitor with in vitro and in vivo anti-tumor activity in breast cancer models” (Scientific Reports, 2017)

Tests used:
MDA-MB-231 cells = test: MTT cell viability assay; assay type: cell-based, human; settings: for inhibition at 10 µM: Homo sapiens, MDA-MB-231, 48 h, read-out: Antiproliferative activity at 10μM in MDA-MB-231; for inhibition at 10 µM / Antiproliferative activity at 10μM in MDA-MB-231: % inhibition
Experimental: (§1) Cell viability assay was performed as described previously. Briefly, cells were seeded in 96 well plates and treated with different concentrations of compound 19 for 48 h. After drug treatment, MTT reagent was added in each well of the plate and cell viability was quantified by measuring the absorbance at 590 nm.

[1] = test system: 4T1 (Mouse Breast Cancer); test: MTT cell viability assay; assay type: cell-based; settings: 10 µM
Experimental: as §1

A549 (Lung) = test: MTT cell viability assay; assay type: cell-based
Experimental: as §1

DLD1 (Colon) = test: MTT cell viability assay; assay type: cell-based
Experimental: as §1

PANC-1 (Pancreas) = test: MTT cell viability assay; assay type: cell-based
Experimental: as §1

FEN1 protein = biological target: T1, FEN1 protein (Homo sapiens, UniProt P39748); test: Flap cleavage assay; assay type: biochemical; settings: compound 19 at 5, 10, 20 µM
T1 construct: His-tag (C); made in house; host or cells: E. coli BL21DE3
T1 sequence (P39748 whole entry): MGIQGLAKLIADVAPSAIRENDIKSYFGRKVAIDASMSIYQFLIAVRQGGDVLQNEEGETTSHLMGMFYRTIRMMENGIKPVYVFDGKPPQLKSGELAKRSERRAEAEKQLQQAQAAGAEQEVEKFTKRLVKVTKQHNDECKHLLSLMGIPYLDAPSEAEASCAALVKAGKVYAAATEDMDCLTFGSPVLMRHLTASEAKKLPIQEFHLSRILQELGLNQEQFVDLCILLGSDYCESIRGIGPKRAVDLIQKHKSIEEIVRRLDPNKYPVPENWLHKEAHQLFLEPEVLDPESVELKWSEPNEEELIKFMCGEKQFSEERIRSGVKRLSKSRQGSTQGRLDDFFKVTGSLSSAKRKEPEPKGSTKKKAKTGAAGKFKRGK
Experimental: Purification of FEN 1: Full length FEN1 DNA template was taken from pShuttle-FEN1hWT, a gift from Sheila Stewart (Addgene plasmid#35027) is subcloned into a pET41a expression vector containing C-terminal His-tag. pET41FEN1His freshly transformed into expression host BL21DE3 E. coli cells (Novagene), single colonies picked and inoculated in 5ml of LB media containing 50μg/ml of Kanamycin, grown for 3 to 4 hrs and further subcultured in 100 ml of LB medium containing 50μg/ml of Kanamycin and grown at 37°C till the OD reached to 0.6-0.7, induced at 0.5 mM IPTG at 16°C for 18hrs. Pellets were collected and lysed in 20 mM tris 150 mM NaCl (Lysis buffer) containing 1mM PMSF and 1mM benzamidine hydrochloride and purified by Ni-NTA affinity chromatography.
Flap cleavage assay: All oligos were purchased from Integrated DNA Technologies and dissolved in nuclase free water at concentration of 100μM. FAM-labeled 25+6 Flap-mer (5’-[…]-3’*6FAM)) was annealed with 52- mer (5’-[…]-3’) and 27-mer (5’-[…]-3’) to form a complementary double strand flap cleavage substrate. […] The cleaved and uncleaved DNA molecules are separated on 15% Urea gel and bands were detected by Image Quant LAS 4010 (GE Healthcare).

SK-OV-3 (Ovary) = test: MTT cell viability assay; assay type: cell-based
Experimental: as §1

PLC/PRF/5 (Liver) = test: MTT cell viability assay; assay type: cell-based
Experimental: as §1

A172 (Brain) = test: MTT cell viability assay; assay type: cell-based
Experimental: as §1

SMILES | melting point [°C] | inhibition at 10 µM (MDA-MB-231 cells) [%] | further results
COc1ccc(OC)c(/C=C/c2cc(=O)oc3c2ccc2c(OC)cccc23)c1 [Compound 29] | – | 10.4 | –
COc1cc(/C=C/c2cc(=O)oc3c2ccc2c(OC)cccc23)cc(OC)c1 [Compound 26] | – | – | % Inhibition of cell viability at 10 µM, 4T1 (Mouse Breast Cancer) [1]: 36.12%; % Inhibition of cell viability at 10 µM, A549 (Lung) (A549 (Lung)): NA (NA= Not active (% Inhibition <30%)); % Inhibition of cell viability at 10 µM, DLD1 (Colon) (DLD1 (Colon)): NA (NA= Not active (% Inhibition <30%)); % Inhibition of cell viability at 10 µM, PANC-1 (Pancreas) (PANC-1 (Pancreas)): NA (NA= Not active (% Inhibition <30%)); Antiproliferative activity at 10μM in MDA-MB-231 (MDA-MB-231 cells): 50.03%
COc1ccc(/C=C/c2cc(=O)oc3c2ccc2c(C)cccc23)cc1OC [Compound 39] | – | 10.1 | –
COc1cc(/C=C/c2cc(=O)oc3c2ccc2c(C)cccc23)cc(OC)c1OC [Compound 38] | – | 22 | –
COc1cccc2c1ccc1c(/C=C/c3ccc(C#N)cc3)cc(=O)oc12 [Compound 25] | 188 to 189 | 27.9 | –
COc1ccc(OC)c(/C=C/c2cc(=O)oc3c2ccc2ccccc23)c1 [Compound 20] | 168 to 170 | 7.53 | –
O=C(O)c1cc[c]([Sb](=[O])([OH])[OH])cc1[N+](=O)[O-] [NSC13755, reference compound] | – | – | Inhibition of FEN1 flap cleavage activity (FEN1 protein): less clevage
COc1cccc(OC)c1/C=C/c1cc(=O)oc2c1ccc1ccccc12 [Compound 16] | 174 to 175 | > 50 | % Inhibition of cell viability at 10 µM, 4T1 (Mouse Breast Cancer) [1]: 33.89%; % Inhibition of cell viability at 10 µM, A549 (Lung) (A549 (Lung)): NA (NA= Not active (% Inhibition <30%)); % Inhibition of cell viability at 10 µM, DLD1 (Colon) (DLD1 (Colon)): NA (NA= Not active (% Inhibition <30%)); % Inhibition of cell viability at 10 µM, PANC-1 (Pancreas) (PANC-1 (Pancreas)): NA (NA= Not active (% Inhibition <30%)); % Inhibition of cell viability at 10 µM, SK-OV-3 (Ovary) (SK-OV-3 (Ovary)): NA (NA= Not active (% Inhibition <30%)); % Inhibition of cell viability at 10 µM, PLC/PRF/5 (Liver) (PLC/PRF/5 (Liver)): NA (NA= Not active (% Inhibition <30%)); % Inhibition of cell viability at 10 µM, A172 (Brain) (A172 (Brain)): NA (NA= Not active (% Inhibition <30%)); % Inhibition of cell viability at 10 µM, MDA-MB-231 (Breast) (MDA-MB-231 cells; 10 µM): 56.48%
COc1ccc(/C=C/c2cc(=O)oc3c2ccc2c(OC)cccc23)c(OC)c1 [Compound 30] | – | 17.9 | –
COc1cccc(OC)c1/C=C/c1cc(=O)oc2c1ccc1c(C)cccc12 [Compound 37] | 160 to 161 | 11.6 | –
N#Cc1ccc(/C=C/c2cc(=O)oc3c2ccc2ccccc23)cc1 [Compound 14] | – | 12.4 | –
CN(C)c1ccc(/C=C/c2cc(=O)oc3c2ccc2ccccc23)cc1 [Compound 12] | – | – | Antiproliferative activity at 10μM in MDA-MB-231 (MDA-MB-231 cells): 4.62%
COc1cc(/C=C/c2cc(=O)oc3c2ccc2ccccc23)cc(OC)c1OC [Compound 18] | 172 to 173 | 8.2 | –
Cc1cccc2c1ccc1c(/C=C/c3ccc([N+](=O)[O-])cc3)cc(=O)oc12 [Compound 33] | 238 to 239 | 6.12 | –
COc1cc(/C=C/c2cc(=O)oc3c2ccc2c(C)cccc23)cc(OC)c1 [Compound 34] | – | 0.54 | –
COc1ccc(/C=C/c2cc(=O)oc3c2ccc2c(C)cccc23)c(OC)c1 [Compound 35] | – | 12.8 | –
COc1ccc(/C=C/c2cc(=O)oc3c2ccc2c(OC)cccc23)cc1OC [Compound 27] | – | 8.81 | –

Now from value to compound, other results behind:

melting point [°C] | SMILES | inhibition at 10 µM (MDA-MB-231 cells) [%] | further results
178 to 179 | COc1cccc(OC)c1/C=C/c1cc(=O)oc2c1ccc1c(OC)cccc12 [Compound 28] | – | –
181 to 183 | COc1ccc(/C=C/c2cc(=O)oc3c2ccc2ccccc23)c(OC)c1 [Compound 21] | 0.16 | –
205 to 206 | COc1cc(/C=C/c2cc(=O)oc3c2ccc2c(OC)cccc23)cc(OC)c1OC [Compound 31] | 1.7 | –
180 to 182 | COc1ccc(/C=C/c2cc(=O)oc3c2ccc2ccccc23)cc1OC [Compound 17] | – | –
142 to 144 | COc1ccc(/C=C/c2cc(=O)oc3c2ccc2ccccc23)cc1 [Compound 11] | 1.46 | –
178 to 179 | Cc1cccc2c1ccc1c(/C=C/c3ccccc3)cc(=O)oc12 [Compound 32] | 18.2 | –
220 to 222 | COc1cccc2c1ccc1c(/C=C/c3ccc([N+](=O)[O-])cc3)cc(=O)oc12 [Compound 24] | 20 | –
145 to 146 | COc1cccc(/C=C/c2cc(=O)oc3c2ccc2ccccc23)c1 [Compound 15] | – | –
170 to 171 | COc1ccc(/C=C/c2cc(=O)oc3c2ccc2c(OC)cccc23)cc1 [Compound 23] | 6.04 | –
